We go through 13 compounds from US20200048668A1, “BIOLOGICAL PRODUCTION OF ß-LACTONES” (Regents of the University of Minnesota, priority 2018, published 2020).

The target in assay [1] is X. campestris OleB (Xanthomonas campestris pv. campestris, UniProt Q8PDW8). Nature of the assay: OleB reactions with β-lactone followed by 1H-NMR. Format: biochemical. The settings on record: for β-lactone that underwent decarboxylation to cis-olefin: 1.0 mg OleB, overnight, room temperature, 1H-NMR.
For assay [2], the target named is Xc OleB (Xanthomonas campestris pv. campestris, UniProt Q8PDW8). Kind of assay: OleB reactions with haloalkanes (GC-FID/MS). Format: biochemical. The settings on record: monitored by GC-FID/MS. The method, then: The following haloalkane substrates were dissolved in ethanol to a concentration of 5 mM for testing with Xc OleB: 1-iodobutane, 1,3-diiodobutane,1-chlorobutane, 1-bramopentane, 1-chlorohexane, 1-bromooctane, 1-iodoundecane, and 7-(bromomethyl)pentadecane. Reactions were carried out in glass GC vials contained purified OleB (40 μg) and 10 μL of substrate in 500 μL, of 200 mM NaCl, 20 mM NaPO4 at pH 7.4. Reactions were incubated at room temperature overnight, followed by extraction with tert-butyl methylether (MTBE). The MTBE extract was transferred to a clean GC vial and analyzed by gas chromatography/mass spectrometry (GC/MS Agilent 7890a & 5975c with an Agilent J&W bd-ms1 column 30 m length, 0.25 mm diameter, 0.25 μm film).

Assay [3] concerns the target ClpP protease of Mycobacterium tuberculosis (Mycobacterium tuberculosis, UniProt P9WPC3+P9WPC5). The settings on record: cited from earlier work.
For assay [4], the target named is OleB (Xanthomonas campestris pv. campestris, UniProt Q8PDW8). Kind of assay: MALDI-TOF of acyl-enzyme intermediate with haloalkane. Format: binding. The settings on record: wild type OleB. On the procedure: To identify an acyl-enzyme intermediate, Matrix Assisted Laser Desorption Ionization (MALDI) was carried out on wild type OleB and OleBD114A proteins that had been reacted with 7-(bromornethyl)pentadecane (TCI). These two substrates contain the reactive bromomethyl group in the middle of a long alkyl chain, thereby mimicking the β-lactone substrate of OleB. Reactions contained 500 μM substrate and 40 μg of OleB in 100 μL of buffer (20 mM NaCl, 5 mM NaPO4, pH 7.4). Reaction were prepared for MALDI using standard C4 ZipTip (Millipore) procedures and spotted on a plate with sinapinic acid. Samples were analyzed on a Bruker Autoflex Speed MALDI-TOF.

In assay [5] the target is human 20S protease (Homo sapiens, UniProt P28072+P28074+Q99436). The following applies: cited from earlier work.
The target of assay [6] is human pancreatic lipase (Homo sapiens, UniProt P16233). The following applies: cited from earlier work.
Assay [7] deals with T1, pancreatic lipase (Homo sapiens, UniProt P16233).
T1 sequence (P16233 17-465): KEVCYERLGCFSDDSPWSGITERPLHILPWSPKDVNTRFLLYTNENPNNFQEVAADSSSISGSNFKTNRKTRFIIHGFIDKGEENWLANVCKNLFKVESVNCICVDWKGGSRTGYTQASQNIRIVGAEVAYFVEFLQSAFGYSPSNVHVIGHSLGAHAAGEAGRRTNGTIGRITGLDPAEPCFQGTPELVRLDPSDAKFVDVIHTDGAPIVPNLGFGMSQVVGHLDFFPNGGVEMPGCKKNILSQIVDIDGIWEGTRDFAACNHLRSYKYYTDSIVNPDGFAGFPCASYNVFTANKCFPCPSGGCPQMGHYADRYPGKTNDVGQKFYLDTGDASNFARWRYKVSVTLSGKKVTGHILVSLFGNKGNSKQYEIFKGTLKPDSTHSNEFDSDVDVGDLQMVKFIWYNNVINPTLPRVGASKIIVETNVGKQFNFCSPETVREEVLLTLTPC
Nature of the assay: Lipase inhibition by β-lactones in microtiter well plates. Type of assay: biochemical. The settings on record: FIGS. 13A-E. On the procedure:
Cis and trans-isomers of β-lactones were synthesized and tested separately. […] These reactions were conducted in microtiter well plates so the inhibition of the lipase can be measured in a high-throughput manner such that hundreds or thousands of β-lactones can be rapidly screened. In addition, fatty acyl-CoA substrates can be combined with OleADC and lipase and lipase inhibition can be detected. Moreover, lipase may be substituted with proteasomes, penicillin binding proteins, pathogenic bacteria, or cancer cells and inhibitory activity of one or a plurality of β-lactones detected.

Xc OleB, sequence (Q8PDW8 whole entry): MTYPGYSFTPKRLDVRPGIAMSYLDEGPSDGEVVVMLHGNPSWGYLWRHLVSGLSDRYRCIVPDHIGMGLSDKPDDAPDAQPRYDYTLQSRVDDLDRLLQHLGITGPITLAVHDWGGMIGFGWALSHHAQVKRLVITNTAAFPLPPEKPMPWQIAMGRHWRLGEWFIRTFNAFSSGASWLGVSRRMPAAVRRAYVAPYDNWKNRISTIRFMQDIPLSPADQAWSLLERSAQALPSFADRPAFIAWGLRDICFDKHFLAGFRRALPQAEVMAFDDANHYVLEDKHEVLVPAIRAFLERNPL
X. campestris OleB, sequence (Q8PDW8 whole entry): as above
OleB, sequence (Q8PDW8 whole entry): as above
ClpP protease of Mycobacterium tuberculosis, sequence (P9WPC5 whole entry): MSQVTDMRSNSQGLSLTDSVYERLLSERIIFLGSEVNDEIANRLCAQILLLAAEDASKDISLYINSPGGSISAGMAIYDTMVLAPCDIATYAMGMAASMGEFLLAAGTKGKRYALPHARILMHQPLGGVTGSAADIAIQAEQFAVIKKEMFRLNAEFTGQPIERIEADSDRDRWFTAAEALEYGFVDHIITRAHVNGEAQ
ClpP protease of Mycobacterium tuberculosis, sequence (P9WPC3 whole entry): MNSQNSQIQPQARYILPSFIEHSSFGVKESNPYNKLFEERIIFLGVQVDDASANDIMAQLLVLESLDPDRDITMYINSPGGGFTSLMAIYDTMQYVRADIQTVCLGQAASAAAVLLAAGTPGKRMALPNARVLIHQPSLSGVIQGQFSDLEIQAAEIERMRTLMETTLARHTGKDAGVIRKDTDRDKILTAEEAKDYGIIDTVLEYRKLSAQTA

For `CCCCCCCCCC1OC(=O)C1CCCCCCCC` (stereo not drawn) [cis-β-lactone, 3-octyl-4-nonyl-2-oxetanone], the “β-lactone that underwent decarboxylation to cis-olefin” value in assay [1] is reported as 47%. Further, the “cis-β-lactone starting material converted to cis-olefin” value in assay [1] (2 mg of OleB) stood at 54%; in assay [1] (4 mg of OleB) it was 63%. For `CCCCCCBr` [1-bromohexane], the “dehalogenase activity towards haloalkane substrate” value in assay [2] is “No detectable activity”.

As to `CCCCCCCCCC1OC(=O)C1CCCCCCCC` (stereo not drawn) [trans-β-lactone, 3-octyl-4-nonyl-2-oxetanone], the “β-lactone that underwent decarboxylation to cis-olefin” value in assay [1] is 4%. With `CCCCCCCCCCCI` [1-iodoundecane], the “dehalogenase activity towards haloalkane substrate” value in assay [2] is reported as “No detectable activity”.

On to `CCCCCCCl` [1-cholohexane], for which, in assay [2], the “dehalogenase activity towards haloalkane substrate” value was “No detectable activity”.

Consider `CCCC1OC(=O)C1Cc1ccccc1` (stereo not shown) [3-benzyl, 4-propyl oxetanone], for which the “inhibition of ClpP protease” value in assay [3] is reported as “inhibit the ClpP protease of Mycobacterium tuberculosis”. For `CCCCCCCCC(CBr)CCCCCC` (stereo not shown) [7-(bromomethyl)pentadecane], in assay [2], the “dehalogenase activity towards haloalkane substrate” value is reported as “No detectable activity”. Moreover, in assay [4], the “acyl-enzyme intermediate formation (mass shift)” value was “forms a stable acyl-enzyme intermediate”. As for `CCCCBr` [1-bromobutane], in assay [2], the “dehalogenase activity towards haloalkane substrate” value is “No detectable activity”.

`CCCCI` [1-iodobutane]: the “dehalogenase activity towards haloalkane substrate” value in assay [2] was “No detectable activity”. On to salinosporamide, for which the “inhibition of human 20S protease function” value in assay [5] is “inhibit human 20S protease function”. Turning to `CCCCC/C=C\C/C=C\C[C@@H](C[C@@H]1OC(=O)[C@H]1CCCCCC)OC(=O)[C@H](CC(C)C)NC=O` [lipstatin], the “inhibition of human pancreatic lipase” value in assay [6] was “inhibiting human pancreatic lipase”.

As to `CCCCCl` [1-chlorobutane], the “dehalogenase activity towards haloalkane substrate” value in assay [2] was “No detectable activity”. On to `CCCCCCCCCCC[C@@H](C[C@@H]1OC(=O)[C@H]1CCCCCC)OC(=O)[C@H](CC(C)C)NC=O` [Orlistat, tetrahydrolipstatin], for which the lipase inhibitory activity result in assay [7] is “inhibits pancreatic lipase at nanogram levels”.
